Measurements taken from the kinase profiling compilation of Christmann-Franck et al. (2016).

How the values were obtained:
Assay in all cases: Caliper, Mobility shift assay off-chip
SGK3 (human) = SGK3 (human) (UniProt Q96BR1)
BRSK1 (human) = BRSK1 (human) (UniProt Q8TDC3)
[1] = test system: ABL1 (human), P00519 [T315I]
MAPK11 (human) = MAPK11 (human) (UniProt Q15759)
MARK1 (human) = MARK1 (human) (UniProt Q9P0L2)
FLT3 (human) = FLT3 (human) (UniProt P36888)
KDR (human) = KDR (human) (UniProt P35968)
MAPK13 (human) = MAPK13 (human) (UniProt O15264)
FGFR4 (human) = FGFR4 (human) (UniProt P22455)
IGF1R (human) = IGF1R (human) (UniProt P08069)
MAP4K4 (human) = MAP4K4 (human) (UniProt O95819)
PRKCZ (human) = PRKCZ (human) (UniProt Q05513)
Sequence of PRKCZ (human) (Q05513 whole entry, looked up): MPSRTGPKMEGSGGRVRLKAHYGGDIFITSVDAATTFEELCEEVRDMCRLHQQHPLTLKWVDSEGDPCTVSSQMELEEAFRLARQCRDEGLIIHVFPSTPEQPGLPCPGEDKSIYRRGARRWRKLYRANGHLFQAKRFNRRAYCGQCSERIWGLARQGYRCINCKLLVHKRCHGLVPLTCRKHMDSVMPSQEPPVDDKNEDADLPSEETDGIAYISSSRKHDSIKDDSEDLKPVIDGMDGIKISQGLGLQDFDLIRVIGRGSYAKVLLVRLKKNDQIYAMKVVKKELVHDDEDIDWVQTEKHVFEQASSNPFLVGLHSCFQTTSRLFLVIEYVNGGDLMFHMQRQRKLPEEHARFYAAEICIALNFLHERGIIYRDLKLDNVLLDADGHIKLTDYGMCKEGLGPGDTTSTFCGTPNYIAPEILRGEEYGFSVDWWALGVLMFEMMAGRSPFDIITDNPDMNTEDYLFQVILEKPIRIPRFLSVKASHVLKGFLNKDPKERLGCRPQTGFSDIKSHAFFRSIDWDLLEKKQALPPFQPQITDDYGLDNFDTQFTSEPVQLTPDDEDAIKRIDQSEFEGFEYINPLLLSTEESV

[2] = test system: FGFR2 (human), P21802 [N549H]
RPS6KA5 KD1 KD2 (human) = RPS6KA5 KD1 KD2 (human) (UniProt O75582)
PRKCH (human) = PRKCH (human) (UniProt P24723)
Sequence of PRKCH (human) (P24723 whole entry, looked up): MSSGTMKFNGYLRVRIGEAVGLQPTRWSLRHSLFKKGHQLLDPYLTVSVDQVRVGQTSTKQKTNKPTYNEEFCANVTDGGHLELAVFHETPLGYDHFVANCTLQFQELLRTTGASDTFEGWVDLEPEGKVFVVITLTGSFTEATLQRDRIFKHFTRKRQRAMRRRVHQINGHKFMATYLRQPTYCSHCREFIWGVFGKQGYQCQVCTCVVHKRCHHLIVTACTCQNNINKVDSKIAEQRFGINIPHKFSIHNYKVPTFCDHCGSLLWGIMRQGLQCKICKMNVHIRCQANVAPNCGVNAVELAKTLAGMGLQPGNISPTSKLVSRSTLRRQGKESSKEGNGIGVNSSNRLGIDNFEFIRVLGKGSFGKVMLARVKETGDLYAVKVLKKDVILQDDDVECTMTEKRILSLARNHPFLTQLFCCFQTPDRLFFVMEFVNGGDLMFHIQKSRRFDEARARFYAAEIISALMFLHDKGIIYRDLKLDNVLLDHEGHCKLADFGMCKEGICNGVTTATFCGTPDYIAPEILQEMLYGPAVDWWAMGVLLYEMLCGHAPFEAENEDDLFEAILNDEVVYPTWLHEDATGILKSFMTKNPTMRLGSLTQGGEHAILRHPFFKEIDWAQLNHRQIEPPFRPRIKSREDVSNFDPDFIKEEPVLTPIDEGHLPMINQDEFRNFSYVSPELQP

MAPK14 (human) = MAPK14 (human) (UniProt Q16539)
TSSK2 (human) = TSSK2 (human) (UniProt Q96PF2)
AURKC (human) = AURKC (human) (UniProt Q9UQB9)
MARK3 (human) = MARK3 (human) (UniProt P27448)
Sequence of MARK3 (human) (P27448 whole entry, looked up): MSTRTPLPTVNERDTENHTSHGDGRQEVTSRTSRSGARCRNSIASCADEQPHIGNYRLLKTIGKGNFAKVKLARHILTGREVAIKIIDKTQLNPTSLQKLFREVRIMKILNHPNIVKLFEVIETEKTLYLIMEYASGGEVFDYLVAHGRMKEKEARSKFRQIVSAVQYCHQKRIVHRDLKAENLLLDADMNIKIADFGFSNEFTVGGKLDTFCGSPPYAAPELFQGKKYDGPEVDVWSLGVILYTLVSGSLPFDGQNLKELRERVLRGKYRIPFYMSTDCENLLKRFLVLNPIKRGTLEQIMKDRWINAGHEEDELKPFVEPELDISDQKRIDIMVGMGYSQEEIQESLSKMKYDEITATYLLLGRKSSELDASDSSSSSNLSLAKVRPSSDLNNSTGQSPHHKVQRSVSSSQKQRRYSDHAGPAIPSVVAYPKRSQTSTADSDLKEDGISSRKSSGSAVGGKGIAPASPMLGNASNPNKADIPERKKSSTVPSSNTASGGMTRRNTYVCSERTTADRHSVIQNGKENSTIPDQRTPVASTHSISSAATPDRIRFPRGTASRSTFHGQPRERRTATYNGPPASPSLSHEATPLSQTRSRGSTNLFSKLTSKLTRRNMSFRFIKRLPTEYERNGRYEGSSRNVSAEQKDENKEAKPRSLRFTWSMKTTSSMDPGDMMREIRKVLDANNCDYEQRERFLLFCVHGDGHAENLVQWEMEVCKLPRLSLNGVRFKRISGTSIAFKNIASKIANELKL

CSNK1A1 (human) = CSNK1A1 (human) (UniProt P48729)
Sequence of CSNK1A1 (human) (P48729 whole entry, looked up): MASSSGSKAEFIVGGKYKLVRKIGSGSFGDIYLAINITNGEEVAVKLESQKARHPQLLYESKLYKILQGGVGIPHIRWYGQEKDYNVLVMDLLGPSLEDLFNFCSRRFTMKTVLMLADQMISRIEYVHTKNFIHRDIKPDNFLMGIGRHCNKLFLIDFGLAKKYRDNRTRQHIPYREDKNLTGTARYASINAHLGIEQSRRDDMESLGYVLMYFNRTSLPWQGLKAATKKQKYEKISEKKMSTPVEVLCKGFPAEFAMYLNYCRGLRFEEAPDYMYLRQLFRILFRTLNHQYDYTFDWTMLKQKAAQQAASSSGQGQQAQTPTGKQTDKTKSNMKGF

BRSK2 (human) = BRSK2 (human) (UniProt Q8IWQ3)
BTK (human) = BTK (human) (UniProt Q06187)
PRKCQ (human) = PRKCQ (human) (UniProt Q04759)
MARK2 (human) = MARK2 (human) (UniProt Q7KZI7)
PDGFRA (human) = PDGFRA (human) (UniProt P16234); conditions: compound 0.1 µM
CSNK1D (human) = CSNK1D (human) (UniProt P48730)
DCLK2 (human) = DCLK2 (human) (UniProt Q8N568)
ABL1 (human) = ABL1 (human) (UniProt P00519)
PRKACA (human) = PRKACA (human) (UniProt P17612)
PIM2 (human) = PIM2 (human) (UniProt Q9P1W9)
Sequence of PIM2 (human) (Q9P1W9 whole entry, looked up): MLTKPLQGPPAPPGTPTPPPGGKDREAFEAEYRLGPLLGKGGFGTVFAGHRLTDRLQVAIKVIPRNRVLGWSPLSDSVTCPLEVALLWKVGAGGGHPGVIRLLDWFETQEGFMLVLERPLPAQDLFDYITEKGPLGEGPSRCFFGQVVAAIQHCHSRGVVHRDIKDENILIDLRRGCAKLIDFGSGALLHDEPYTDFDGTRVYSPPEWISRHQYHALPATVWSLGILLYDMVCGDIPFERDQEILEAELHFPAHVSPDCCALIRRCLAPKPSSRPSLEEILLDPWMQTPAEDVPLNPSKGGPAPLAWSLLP

RPS6KA4 KD1 KD2 (human) = RPS6KA4 KD1 KD2 (human) (UniProt O75676)
Sequence of RPS6KA4 KD1 KD2 (human) (O75676 whole entry, looked up): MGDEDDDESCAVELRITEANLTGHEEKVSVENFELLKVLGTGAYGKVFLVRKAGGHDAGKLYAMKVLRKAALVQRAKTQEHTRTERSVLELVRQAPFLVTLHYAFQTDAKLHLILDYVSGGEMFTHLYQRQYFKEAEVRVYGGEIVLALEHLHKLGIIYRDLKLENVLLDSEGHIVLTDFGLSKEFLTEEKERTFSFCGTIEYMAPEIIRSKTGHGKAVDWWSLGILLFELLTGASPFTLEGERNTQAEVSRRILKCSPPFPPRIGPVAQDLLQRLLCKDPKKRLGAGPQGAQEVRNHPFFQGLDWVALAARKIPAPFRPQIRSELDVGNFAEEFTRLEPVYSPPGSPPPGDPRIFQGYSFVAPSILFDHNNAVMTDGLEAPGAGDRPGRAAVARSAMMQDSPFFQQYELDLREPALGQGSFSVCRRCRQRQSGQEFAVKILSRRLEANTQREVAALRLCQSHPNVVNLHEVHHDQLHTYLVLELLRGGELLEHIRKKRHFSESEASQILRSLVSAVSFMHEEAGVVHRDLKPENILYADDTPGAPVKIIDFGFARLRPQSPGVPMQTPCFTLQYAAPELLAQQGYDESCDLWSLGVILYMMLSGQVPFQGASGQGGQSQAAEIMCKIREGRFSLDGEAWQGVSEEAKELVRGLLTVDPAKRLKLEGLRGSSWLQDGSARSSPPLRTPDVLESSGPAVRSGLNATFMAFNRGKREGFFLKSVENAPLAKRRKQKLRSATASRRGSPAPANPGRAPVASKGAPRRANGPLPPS

MAPKAPK5 (human) = MAPKAPK5 (human) (UniProt Q8IW41)
Sequence of MAPKAPK5 (human) (Q8IW41 whole entry, looked up): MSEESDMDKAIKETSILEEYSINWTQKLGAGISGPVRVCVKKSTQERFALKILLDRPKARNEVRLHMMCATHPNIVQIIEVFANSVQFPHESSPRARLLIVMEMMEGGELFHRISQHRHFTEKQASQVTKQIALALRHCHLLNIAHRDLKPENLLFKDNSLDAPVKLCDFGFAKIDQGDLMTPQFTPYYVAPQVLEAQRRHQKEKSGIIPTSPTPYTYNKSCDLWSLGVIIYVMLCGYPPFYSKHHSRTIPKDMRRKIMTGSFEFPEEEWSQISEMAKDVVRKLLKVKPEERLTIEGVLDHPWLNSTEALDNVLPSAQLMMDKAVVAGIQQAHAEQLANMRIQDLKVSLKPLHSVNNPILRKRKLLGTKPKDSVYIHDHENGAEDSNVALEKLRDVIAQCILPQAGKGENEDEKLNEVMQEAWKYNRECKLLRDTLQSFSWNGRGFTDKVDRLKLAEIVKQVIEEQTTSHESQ

RPS6KB1 (human) = RPS6KB1 (human) (UniProt P23443)
Sequence of RPS6KB1 (human) (P23443 whole entry, looked up): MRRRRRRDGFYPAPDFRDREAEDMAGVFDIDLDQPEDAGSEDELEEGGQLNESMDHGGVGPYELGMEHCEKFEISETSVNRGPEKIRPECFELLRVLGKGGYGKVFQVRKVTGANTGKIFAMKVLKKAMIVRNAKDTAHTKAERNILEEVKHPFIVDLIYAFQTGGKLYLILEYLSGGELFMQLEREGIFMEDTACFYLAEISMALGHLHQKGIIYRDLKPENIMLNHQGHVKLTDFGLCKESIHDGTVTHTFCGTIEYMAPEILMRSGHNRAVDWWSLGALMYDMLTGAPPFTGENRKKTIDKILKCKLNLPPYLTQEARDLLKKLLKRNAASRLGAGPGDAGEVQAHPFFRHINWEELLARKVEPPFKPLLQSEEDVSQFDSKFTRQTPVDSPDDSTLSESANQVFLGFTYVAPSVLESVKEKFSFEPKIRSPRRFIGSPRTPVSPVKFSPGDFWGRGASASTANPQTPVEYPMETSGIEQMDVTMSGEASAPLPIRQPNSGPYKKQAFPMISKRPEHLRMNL

Sequence of SGK3 (human) (Q96BR1 whole entry, looked up): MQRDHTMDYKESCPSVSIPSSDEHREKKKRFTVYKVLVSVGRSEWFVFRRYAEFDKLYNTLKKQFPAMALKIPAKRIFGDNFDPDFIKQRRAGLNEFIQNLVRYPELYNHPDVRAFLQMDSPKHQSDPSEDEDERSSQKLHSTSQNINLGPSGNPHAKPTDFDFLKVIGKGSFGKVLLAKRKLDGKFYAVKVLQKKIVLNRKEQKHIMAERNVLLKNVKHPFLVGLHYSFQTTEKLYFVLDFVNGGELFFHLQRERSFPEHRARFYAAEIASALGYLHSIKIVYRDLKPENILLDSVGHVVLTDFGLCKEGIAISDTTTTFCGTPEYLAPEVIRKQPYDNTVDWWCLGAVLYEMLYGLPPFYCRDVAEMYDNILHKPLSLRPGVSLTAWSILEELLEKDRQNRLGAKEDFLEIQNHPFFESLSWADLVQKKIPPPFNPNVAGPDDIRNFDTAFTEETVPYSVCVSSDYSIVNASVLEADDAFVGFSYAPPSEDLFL

In the case of `Cn1cc(-c2cnc3ccc4ccc(CS(=O)(=O)CCc5ccccn5)cc4c(=O)c3c2)cn1`, the inhibition (SGK3 (human); compound 0.1 µM) is reported as -10.4%, the inhibition (SGK3 (human); compound 1.0 µM) is reported as 6.2% and the inhibition (BRSK1 (human); compound 0.1 µM) is reported as -11.7%. The inhibition (BRSK1 (human); compound 1.0 µM) was 0.3%, the inhibition ([1]; compound 0.1 µM) was 7.1% and the inhibition ([1]; compound 1.0 µM) was 4.4%. The inhibition (MAPK11 (human); compound 0.1 µM) was -11%, the inhibition (MAPK11 (human); compound 1.0 µM) was -1.8% and the inhibition (MARK1 (human); compound 0.1 µM) was 1.2%. The inhibition (MARK1 (human); compound 1.0 µM) was -13.9%, the inhibition (FLT3 (human); compound 0.1 µM) was 1.3% and the inhibition (FLT3 (human); compound 1.0 µM) was 24.2%. The inhibition (KDR (human); compound 0.1 µM) was 7.9%, the inhibition (KDR (human); compound 1.0 µM) was 28.2% and the inhibition (MAPK13 (human); compound 0.1 µM) was -7.9%. It also gave an inhibition (MAPK13 (human); compound 1.0 µM) of -7.1%, an inhibition (FGFR4 (human); compound 0.1 µM) of -0.6% and an inhibition (FGFR4 (human); compound 1.0 µM) of 15.7%. The inhibition (IGF1R (human); compound 0.1 µM) was -23.8%, the inhibition (IGF1R (human); compound 1.0 µM) was -10% and the inhibition (MAP4K4 (human); compound 0.1 µM) was -2%. The inhibition (MAP4K4 (human); compound 1.0 µM) was 10.6%, the inhibition (PRKCZ (human); compound 0.1 µM) was 3.2% and the inhibition (PRKCZ (human); compound 1.0 µM) was 6.8%. For the same molecule, the inhibition ([2]; compound 0.1 µM) was 5.5%, the inhibition ([2]; compound 1.0 µM) was 15.5% and the inhibition (RPS6KA5 KD1 KD2 (human); compound 0.1 µM) was -3.5%. For the same molecule, the inhibition (RPS6KA5 KD1 KD2 (human); compound 1.0 µM) was -7.4%, the inhibition (PRKCH (human); compound 0.1 µM) was -8.3% and the inhibition (PRKCH (human); compound 1.0 µM) was -5.7%. It also gave an inhibition (MAPK14 (human); compound 0.1 µM) of 5.3%, an inhibition (MAPK14 (human); compound 1.0 µM) of -2.7% and an inhibition (TSSK2 (human); compound 1.0 µM) of -7.1%. For the same molecule, the inhibition (AURKC (human); compound 0.1 µM) was 4.3%, the inhibition (AURKC (human); compound 1.0 µM) was 55.5% and the inhibition (MARK3 (human); compound 0.1 µM) was -7.9%. It also gave an inhibition (MARK3 (human); compound 1.0 µM) of -4.1%, an inhibition (CSNK1A1 (human); compound 0.1 µM) of -8.6% and an inhibition (CSNK1A1 (human); compound 1.0 µM) of -0.9%. It also gave an inhibition (BRSK2 (human); compound 0.1 µM) of 1.5%, an inhibition (BRSK2 (human); compound 1.0 µM) of 2.5% and an inhibition (BTK (human); compound 0.1 µM) of -2.1%. It also gave an inhibition (BTK (human); compound 1.0 µM) of 22%, an inhibition (PRKCQ (human); compound 0.1 µM) of -11.5% and an inhibition (PRKCQ (human); compound 1.0 µM) of -19.7%. The inhibition (MARK2 (human); compound 0.1 µM) was -1.3%, the inhibition (MARK2 (human); compound 1.0 µM) was 6.5% and the inhibition (PDGFRA (human)) was -13%. It also gave an inhibition (CSNK1D (human); compound 0.1 µM) of 7.8%, an inhibition (CSNK1D (human); compound 1.0 µM) of 8.9% and an inhibition (DCLK2 (human); compound 0.1 µM) of -6.4%. For the same molecule, the inhibition (DCLK2 (human); compound 1.0 µM) was -2.5%, the inhibition (ABL1 (human); compound 0.1 µM) was 0.2% and the inhibition (ABL1 (human); compound 1.0 µM) was 11.6%. It also gave an inhibition (PRKACA (human); compound 0.1 µM) of -13.6%, an inhibition (PRKACA (human); compound 1.0 µM) of 2.4% and an inhibition (PIM2 (human); compound 0.1 µM) of -2.1%. For the same molecule, the inhibition (PIM2 (human); compound 1.0 µM) was 4.7%, the inhibition (RPS6KA4 KD1 KD2 (human); compound 0.1 µM) was -2.5% and the inhibition (RPS6KA4 KD1 KD2 (human); compound 1.0 µM) was -1.8%. It also gave an inhibition (MAPKAPK5 (human); compound 0.1 µM) of -20.9%, an inhibition (MAPKAPK5 (human); compound 1.0 µM) of 4.4% and an inhibition (RPS6KB1 (human); compound 0.1 µM) of -19.5%. It also gave an inhibition (RPS6KB1 (human); compound 1.0 µM) of -2.1%.

For `Cn1cc(-c2cnc3ccc4ccc(CS(=O)(=O)NCC5CCCCN5)cc4c(=O)c3c2)cn1` (stereo unspecified), the inhibition (SGK3 (human); compound 0.1 µM) was 0.3%, the inhibition (SGK3 (human); compound 1.0 µM) was -0.7% and the inhibition (BRSK1 (human); compound 0.1 µM) was 2%. For the same molecule, the inhibition (BRSK1 (human); compound 1.0 µM) was 5.2%, the inhibition ([1]; compound 0.1 µM) was 3.3% and the inhibition (MAPK11 (human); compound 0.1 µM) was -1.4%. For the same molecule, the inhibition (MARK1 (human); compound 0.1 µM) was -3.9%, the inhibition (MARK1 (human); compound 1.0 µM) was 33.5% and the inhibition (FLT3 (human); compound 0.1 µM) was 11%. The inhibition (FLT3 (human); compound 1.0 µM) was 36.8%, the inhibition (KDR (human); compound 0.1 µM) was -5.2% and the inhibition (KDR (human); compound 1.0 µM) was 41.8%. The inhibition (MAPK13 (human); compound 0.1 µM) was -4.9%, the inhibition (FGFR4 (human); compound 0.1 µM) was -8.7% and the inhibition (IGF1R (human); compound 0.1 µM) was 4.9%. It also gave an inhibition (IGF1R (human); compound 1.0 µM) of -8.3%, an inhibition (MAP4K4 (human); compound 0.1 µM) of 4.1% and an inhibition (MAP4K4 (human); compound 1.0 µM) of 15.7%. The inhibition (PRKCZ (human); compound 0.1 µM) was -8%, the inhibition (PRKCZ (human); compound 1.0 µM) was 1.3% and the inhibition ([2]; compound 0.1 µM) was -2.9%. For the same molecule, the inhibition (RPS6KA5 KD1 KD2 (human); compound 0.1 µM) was 0.7%, the inhibition (RPS6KA5 KD1 KD2 (human); compound 1.0 µM) was -0.4% and the inhibition (PRKCH (human); compound 0.1 µM) was 3.1%. For the same molecule, the inhibition (PRKCH (human); compound 1.0 µM) was 1.4%, the inhibition (MAPK14 (human); compound 0.1 µM) was 3.3% and the inhibition (MAPK14 (human); compound 1.0 µM) was -2.7%. The inhibition (TSSK2 (human); compound 0.1 µM) was 0.7%, the inhibition (AURKC (human); compound 0.1 µM) was 20.9% and the inhibition (MARK3 (human); compound 0.1 µM) was 2%. For the same molecule, the inhibition (MARK3 (human); compound 1.0 µM) was -4.3%, the inhibition (CSNK1A1 (human); compound 0.1 µM) was -5% and the inhibition (CSNK1A1 (human); compound 1.0 µM) was -11%. It also gave an inhibition (BRSK2 (human); compound 0.1 µM) of -1.3%, an inhibition (BRSK2 (human); compound 1.0 µM) of -9.5% and an inhibition (BTK (human); compound 1.0 µM) of 65%. It also gave an inhibition (PRKCQ (human); compound 0.1 µM) of -15.1%, an inhibition (PRKCQ (human); compound 1.0 µM) of 2.1% and an inhibition (MARK2 (human); compound 0.1 µM) of -12.6%. The inhibition (MARK2 (human); compound 1.0 µM) was 2.4%, the inhibition (PDGFRA (human)) was 17.5% and the inhibition (CSNK1D (human); compound 0.1 µM) was 20.4%. The inhibition (CSNK1D (human); compound 1.0 µM) was 7.4%, the inhibition (DCLK2 (human); compound 0.1 µM) was -6% and the inhibition (DCLK2 (human); compound 1.0 µM) was -0.3%. The inhibition (ABL1 (human); compound 0.1 µM) was 23.1%, the inhibition (ABL1 (human); compound 1.0 µM) was 61.5% and the inhibition (PRKACA (human); compound 0.1 µM) was -1.4%. The inhibition (PRKACA (human); compound 1.0 µM) was 0.3%, the inhibition (PIM2 (human); compound 0.1 µM) was 25.2% and the inhibition (PIM2 (human); compound 1.0 µM) was 16.7%. The inhibition (RPS6KA4 KD1 KD2 (human); compound 0.1 µM) was 0.2%, the inhibition (RPS6KA4 KD1 KD2 (human); compound 1.0 µM) was -17.3% and the inhibition (MAPKAPK5 (human); compound 0.1 µM) was -4.3%. It also gave an inhibition (MAPKAPK5 (human); compound 1.0 µM) of -1.1%, an inhibition (RPS6KB1 (human); compound 0.1 µM) of -2.7% and an inhibition (RPS6KB1 (human); compound 1.0 µM) of 0%.
